Source: patent publication US20250101019A1 (Insilico Medicine IP Limited, priority 2022, published 2025)

Assays:
[1] = target: T1, ENPP1 (Homo sapiens (Human), UniProt P22413); test: cGAMP-Glo enzymatic assay (2′3′-cGAMP substrate, AMP-Glo readout); type: biochemical; conditions: substrate 2′3′-cGAMP; 25° C. for 60 min; 50 mM Tris pH 8.8
Description: (§1) Example A: Enzymatic Assay
(§2) • 1. Diluted compounds in DMSO by hand for 11 points, 3 folds dilution. Then transferred 0.02 μL compounds to 384 assay plate by ECHO. • 2. Added 2 μL specified concentration of ENPP1 to 384 assay plate. Centrifuged 1000 RPM for 1 min. • 3. Added 2 μL specified concentration of ATP to the assay plate. Centrifuged 1000 RPM for 1 min. • 4. Incubated at 25° C. for 60 min. • 5. Added 4 μL AMP-Glo Reagent to the assay plates. • 6. Centrifuged 1000 RPM for 1 min, incubate at 25° C. for 1 hours. • 7. Added 8 μL Kinase Detection Reagent to the assay plates. • 8. Centrifuged 1000 RPM for 1 min, incubated at 25° C. for 1 hours. The final assay reaction mixture contained a buffer of 50 mM Tris pH 8.8, 250 mM NaCl and 0.1% BSA • 9. Read on Envision for US LUM as RLU. • 10. Analyzed the raw data using the equation (V. Data analysis). cGAMP-Glo Assay: • 1. Diluted compounds in DMSO by hand for 11 points, 3 folds dilution. Then transferred 0.02 μL compounds to 384 assay plate by ECHO. • 2. Added 2 μL specified concentration of ENPP1 to 384 assay plate, centrifuged 1000 RPM for 1 min. • 3. Added 2 μL specified concentration of 2′3′-cGAMP to the assay plate, centrifuged 1000 RPM for 1 min. • 4. Incubated at 25° C. for 60 min. • 5. Added 4 μL AMP-Glo Reagent to the assay plates. • 6. Centrifuged 1000 RPM for 1 min, incubated at 25° C. for 1 hours. • 7. Added 8 μL Kinase Detection Reagent to the assay plates. • 8. Centrifuged 1000 RPM for 1 min, incubate at 25° C. for 1 hours. The final assay reaction mixture contained a buffer of 50 mM Tris pH 8.8, 250 mM NaCl and 0.1% BSA • 9. Read on Envision for US LUM as RLU. • 10. Analyzed the raw data using the equation (V. Data analysis).

[2] = target: T1, ENPP1; test: ATP-Glo enzymatic assay (ATP substrate, AMP-Glo readout); type: biochemical; conditions: 25° C. for 60 min, 50 mM Tris pH 8.8
Description: as §1, §2

T1 sequence (P22413 whole entry, species assumed): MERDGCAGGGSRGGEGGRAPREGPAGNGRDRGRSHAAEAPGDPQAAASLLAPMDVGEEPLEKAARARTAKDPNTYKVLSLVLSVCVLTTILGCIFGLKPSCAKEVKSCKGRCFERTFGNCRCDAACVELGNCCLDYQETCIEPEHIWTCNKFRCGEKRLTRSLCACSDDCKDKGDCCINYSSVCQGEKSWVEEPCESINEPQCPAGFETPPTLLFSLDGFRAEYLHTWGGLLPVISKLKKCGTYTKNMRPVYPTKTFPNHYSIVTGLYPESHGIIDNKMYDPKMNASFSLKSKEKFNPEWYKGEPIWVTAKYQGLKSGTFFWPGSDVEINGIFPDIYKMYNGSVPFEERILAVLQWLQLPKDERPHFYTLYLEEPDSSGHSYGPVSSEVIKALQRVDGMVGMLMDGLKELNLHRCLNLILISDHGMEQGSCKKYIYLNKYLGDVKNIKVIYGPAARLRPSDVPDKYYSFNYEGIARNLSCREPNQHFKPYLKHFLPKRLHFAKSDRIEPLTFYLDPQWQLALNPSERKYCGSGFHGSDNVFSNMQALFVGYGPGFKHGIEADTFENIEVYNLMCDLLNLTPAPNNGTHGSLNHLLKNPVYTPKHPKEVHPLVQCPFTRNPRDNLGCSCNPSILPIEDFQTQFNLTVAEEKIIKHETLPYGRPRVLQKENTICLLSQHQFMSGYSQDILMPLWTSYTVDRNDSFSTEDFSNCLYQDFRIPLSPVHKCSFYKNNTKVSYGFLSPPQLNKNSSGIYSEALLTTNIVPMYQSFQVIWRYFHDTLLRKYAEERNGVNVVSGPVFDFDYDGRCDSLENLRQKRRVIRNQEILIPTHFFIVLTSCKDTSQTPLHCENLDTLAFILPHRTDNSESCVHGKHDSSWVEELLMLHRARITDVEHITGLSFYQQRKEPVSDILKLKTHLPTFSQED

Row | Molecule | IC50 [1] [nM] | IC50 [2] [nM]
1 | COc1ncc2c(C)cn(Cc3ccc(S(N)(=O)=O)cc3)c2c1-c1ccn(C)n1 [Example 6, 4-((6-methoxy-3-methyl-7-(1-methyl-1H-pyrazol-3-yl)-1H-pyrrolo[3,2-c]pyridin-1-yl)methyl)benzenesulfonamide] | 1 to 10 | 1 to 10
2 | COc1ncc2nc(C(F)F)n(Cc3ccc(S(N)(=O)=O)cn3)c2c1-c1ccccc1 [Example 75, 6-((2-(difluoromethyl)-6-methoxy-7-phenyl-1H-imidazo[4,5-c]pyridin-1-yl)methyl)pyridine-3-sulfonamide] | < 1 | < 1
3 | COc1ncc2nc(C)n(Cc3ccc(S(N)(=O)=O)c(F)c3)c2c1-c1ccccc1 [Example 36, 2-fluoro-4-((6-methoxy-2-methyl-7-phenyl-1H-imidazo[4,5-c]pyridin-1-yl)methyl)benzenesulfonamide] | < 1 | < 1
4 | [2H]C([2H])([2H])Oc1ncc2nc(C)n(Cc3ccc(S(N)(=O)=O)cc3)c2c1-c1ccccc1 [Example 84, 4-((6-(methoxy-d3)-2-methyl-7-phenyl-1H-imidazo[4,5-c]pyridin-1-yl)methyl)benzenesulfonamide] | < 1 | < 1
5 | Cc1ncc2nc(C(F)(F)F)n(Cc3ncc(S(N)(=O)=O)cc3F)c2c1-c1ccccc1 [Example 69, 5-fluoro-6-((6-methyl-7-phenyl-2-(trifluoromethyl)-1H-imidazo[4,5-c]pyridin-1-yl)methyl)pyridine-3-sulfonamide] | < 1 | < 1
6 | COc1ncc2c(c1C1=CCCC1)n(Cc1c(F)cc(S(N)(=O)=O)cc1F)c(=O)n2C [Example 61, 4-((7-(cyclopent-1-en-1-yl)-6-methoxy-3-methyl-2-oxo-2,3-dihydro-1H-imidazo[4,5-c]pyridin-1-yl)methyl)-3,5-difluorobenzenesulfonamide] | < 1 | < 1
7 | Cc1ncc2c(c1-c1ccccc1)n(Cc1c(F)cc(S(N)(=O)=O)cc1F)c(=O)n2C [Example 59, 4-((3,6-dimethyl-2-oxo-7-phenyl-2,3-dihydro-1H-imidazo[4,5-c]pyridin-1-yl)methyl)-3,5-difluorobenzenesulfonamide] | < 1 | < 1
8 | COc1ncc2c(C)cn(Cc3ccc(S(N)(=O)=O)cc3)c2c1-c1ccc(F)cc1 [Example 12] | 10 to 100 | 10 to 100
9 | Cc1ncc2c(c1C1=CCCC1)n(Cc1c(F)cc(S(N)(=O)=O)cc1F)c(=O)n2C [Example 62, 4-((7-(cyclopent-1-en-1-yl)-3,6-dimethyl-2-oxo-2,3-dihydro-1H-imidazo[4,5-c]pyridin-1-yl)methyl)-3,5-difluorobenzenesulfonamide] | < 1 | < 1
10 | Cc1ncc2nc(C(F)F)n(Cc3ncc(S(N)(=O)=O)cc3F)c2c1-c1ccccc1 [Example 72, 6-((2-(difluoromethyl)-6-methyl-7-phenyl-1H-imidazo[4,5-c]pyridin-1-yl)methyl)-5-fluoropyridine-3-sulfonamide] | < 1 | < 1
11 | COc1ncc2ccn(Cc3ccc(S(N)(=O)=O)cc3)c2c1-c1ccn(C)n1 [Example 5, 4-((6-methoxy-7-(1-methyl-1H-pyrazol-3-yl)-1H-pyrrolo[3,2-c]pyridin-1-yl)methyl)benzenesulfonamide] | 1 to 10 | 10 to 100
12 | COc1ncc2nc(C(F)F)n(Cc3ncc(S(N)(=O)=O)cc3F)c2c1-c1ccccc1 [Example 76, 6-((2-(difluoromethyl)-6-methoxy-7-phenyl-1H-imidazo[4,5-c]pyridin-1-yl)methyl)-5-fluoropyridine-3-sulfonamide] | < 1 | < 1
13 | Cc1ncc2nc(C)n(Cc3c(F)cc(S(N)(=O)=O)cc3F)c2c1-c1cccc(F)c1 [Example 45, 3,5-difluoro-4-((7-(3-fluorophenyl)-2,6-dimethyl-1H-imidazo[4,5-c]pyridin-1-yl)methyl)benzenesulfonamide] | < 1 | < 1
14 | Cc1ncc2c(C)cn(Cc3ccc(S(N)(=O)=O)cc3)c2c1-c1ccccc1 [Example 16, 4-((3,6-dimethyl-7-phenyl-1H-pyrrolo[3,2-c]pyridin-1-yl)methyl)benzene sulfonamide] | < 1 | < 1
15 | COc1ncc2c(c1-c1ccccc1)N(Cc1c(F)cc(S(N)(=O)=O)cc1F)C(=O)C2 [Example 57, 3,5-difluoro-4-((6-methoxy-2-oxo-7-phenyl-2,3-dihydro-1H-pyrrolo[3,2-c]pyridin-1-yl)methyl)benzenesulfonamide] | < 1 | < 1
16 | COc1ncc2c(c1-c1ccccc1)n(Cc1ccc(S(N)(=O)=O)cc1)c(=O)n2C [Example 19, 4-[(6-methoxy-3-methyl-2-oxo-7-phenylimidazo[5,4-c]pyridin-1-yl)methyl]benzene-1-sulfonamide] | < 1 | < 1
17 | COc1ncc2nc(C)n(Cc3ccc(S(N)(=O)=O)cc3F)c2c1-c1ccccc1 [Example 25] | < 1 | < 1
18 | Cc1ncc2nc(CC(F)(F)F)n(Cc3c(F)cc(S(N)(=O)=O)cc3F)c2c1-c1ccccc1 [Example 50, 3,5-difluoro-4-((6-methyl-7-phenyl-2-(2,2,2-trifluoroethyl)-1H-imidazo[4,5-c]pyridin-1-yl)methyl)benzenesulfonamide] | < 1 | < 1
19 | COc1ncc2ccn(Cc3ccc(S(N)(=O)=O)cc3)c2c1-c1cnn(C(F)(F)F)c1 [Example 11, 4-((6-methoxy-7-(1-(trifluoromethyl)-1H-pyrazol-4-yl)-1H-pyrrolo[3,2-c]pyridin-1-yl)methyl)benzenesulfonamide] | 100 to 1000 | 100 to 1000
20 | Cc1ncc2nc(C)n(Cc3c(F)cc(S(N)(=O)=O)cc3F)c2c1-c1ccc(F)cc1 [Example 46, 3,5-difluoro-4-((7-(4-fluorophenyl)-2,6-dimethyl-1H-imidazo[4,5-c]pyridin-1-yl)methyl)benzenesulfonamide] | < 1 | < 1
21 | Cc1ncc2nc(C)n(Cc3c(F)cc(S(N)(=O)=O)cc3F)c2c1C [Example 63, 3,5-difluoro-4-((2,6,7-trimethyl-1H-imidazo[4,5-c]pyridin-1-yl)methyl)benzenesulfonamide] | < 1 | < 1
22 | 4-((6-cyano-2-methyl-7-phenyl-1H-imidazo[4,5-c]pyridin-1-yl)methyl)benzenesulfonamide [Example 41] | < 1 | < 1
23 | COc1ncc2nc(C)n(Cc3ccc(S(N)(=O)=O)cn3)c2c1-c1ccccc1 [Example 74, 6-((6-methoxy-2-methyl-7-phenyl-1H-imidazo[4,5-c]pyridin-1-yl)methyl)pyridine-3-sulfonamide] | < 1 | < 1
24 | Cc1ncc2nc(C)n(Cc3ncc(S(N)(=O)=O)cc3F)c2c1-c1ccccc1 [Example 68, 6-((2,6-dimethyl-7-phenyl-1H-imidazo[4,5-c]pyridin-1-yl)methyl)-5-fluoropyridine-3-sulfonamide] | < 1 | < 1
25 | CC#Cc1c(C)ncc2nc(C)n(Cc3c(F)cc(S(N)(=O)=O)cc3F)c12 [Example 64, 4-((2,6-dimethyl-7-(prop-1-yn-1-yl)-1H-imidazo[4,5-c]pyridin-1-yl)methyl)-3,5-difluorobenzenesulfonamide] | < 1 | < 1
26 | Cc1ncc2nc(C)n(Cc3ccc(OS(N)(=O)=O)cc3)c2c1-c1ccccc1 [Example 37] | < 1 | < 1
27 | COc1ncc2nc(C(F)(F)F)n(Cc3ccc(S(N)(=O)=O)cn3)c2c1-c1ccccc1 [Example 77] | < 1 | < 1
28 | Cc1ncc2c(c1-c1ccccc1)n(Cc1ccc(S(N)(=O)=O)cn1)c(=O)n2C [Example 81, 6-((3,6-dimethyl-2-oxo-7-phenyl-2,3-dihydro-1H-imidazo[4,5-c]pyridin-1-yl)methyl)pyridine-3-sulfonamide] | < 1 | < 1
29 | Cc1ncc2nc(C)n(Cc3c(F)cc(S(N)(=O)=O)cc3F)c2c1C1CC1 [Example 52, 4-((7-cyclopropyl-2,6-dimethyl-1H-imidazo[4,5-c]pyridin-1-yl)methyl)-3,5-difluorobenzenesulfonamide] | < 1 | < 1
30 | COc1ncc2ccn(Cc3ccc(S(N)(=O)=O)cc3)c2c1-n1ccc(C)n1 [Example 8, 4-((6-methoxy-7-(3-methyl-1H-pyrazol-1-yl)-1H-pyrrolo[3,2-c]pyridin-1-yl)methyl)benzenesulfonamide] | 10 to 100 | 10 to 100
